{"source": "patent US20200397764A1", "about": "“VAP-1 INHIBITORS FOR TREATING PAIN” (BENEVOLENTAI CAMBRIDGE LIMITED, priority 2015, published 2020)", "key": {"[1]": {"test_system": "CFA induced hypersensitivity", "assay": "CFA induced hypersensitivity in rat, weight bearing (incapacitance tester)", "type": "in vivo", "conditions": "for inhibition of the hypersensitivity response (weight bearing) / reversal of CFA induced hypersensitivity (weight bearing): rat", "protocol": "(§1) Assessment of the anti-hyperalgesic properties of (3S)-tetrahydrofuran-3-yl (4S)-4-isopropyl-1,4,6,7-tetrahydro-5H-imidazo[4,5-c]pyridine-5-carboxylate mesylate salt was determined through measurement of weight bearing following CFA induced hypersensitivity. Naive rats distribute their body weight equally between the two hind paws. However, when the injected (left) hind paw is painful, the weight is re-distributed so that less weight is put on the affected paw (decrease in weight bearing on injured paw). Weight bearing through each hind limb was measured using a rat incapacitance tester (Linton Instruments, UK). Rats were placed in the incapacitance tester with the hind paws on separate sensors and the average force exerted by both hind limbs was recorded over 4 seconds. The injection of CFA also induces an oedema that can be assessed by paw volume; this is measured using a plethysmometer. The rat's hind paw is placed into the cylinder containing a solution and the volume of displaced liquid determines the paw volume.\nNaive male, Sprague Dawley rats were acclimatised with food and water available ad libitum. Habituation to the incapacitance tester was performed. Baseline weight bearing and paw volume recordings were taken prior to induction of insult. Inflammatory hypersensitivity was induced by intraplantar injection of CFA (100μl of 1 mg/ml solution) into the left hind paw. A pre-treatment weight bearing and paw volume measurement was taken to assess hypersensitivity 23 hours post-CFA. Animals were then ranked and randomised according to CFA window in a Latin square design. […] (dosed in water at 2 mL/Kg, pH ˜5-6), alongside vehicle and reference group (indomethacin), n=9-10 per group. Weight bearing was assessed in all groups 1, 2 and 4 hours post compound administration. Paw volume was assessed 4 hours post compound administration. Data was analysed by comparing treatment groups to control group at each time point. Weight bearing (g) readings were taken for both right and left hind paws and the difference calculated. Data is expressed as % reversal of the hypersensitivity to pain, (post dose reading—pre dose reading)/(naïve reading—pre dose reading)×100, where naive weight bearing difference—pre dose weight bearing difference is defined as the CFA window to be reversed Statistical analysis was conducted by means of repeated measures ANOVA followed by Planned comparison test using InVivoStat (invivostat.co.uk), (p<0.05 considered significant).\nas §1, with “of (S)-Carbidopa” for “of (3S)-tetrahydrofuran-3-yl (4S)-4-isopropyl-1,4,6,7-tetrahydro-5H-imidazo[4,5-c]pyridine-5-carboxylate mesylate salt”, “the Incapacitance” for “the incapacitance”\nNaive male, Sprague Dawley rats were acclimatised with food and water available ad libitum. Habituation to the incapacitance tester was performed. Baseline weight bearing and paw volume recordings were taken prior to induction of insult. Inflammatory hypersensitivity was induced by intraplantar injection of CFA (100 μl of 1 mg/ml solution) into the left hind paw."}, "[2]": {"test_system": "CCI induced neuropathic pain", "assay": "Chronic Constriction Injury (CCI) model of neuropathic pain, mechanical allodynia (von-Frey)", "type": "in vivo, rat", "description": "The Chronic Constriction Injury (CCI) model of neuropathic pain involves unilateral loose ligation of four ligatures around the left sciatic nerve at mid-thigh level spaced 1 mm apart. This procedure results in the development of hyperalgesia, allodynia and spontaneous pain (ectopic discharges) which can be measured using mechanical and thermal behavioural assessments. As such, this model is believed to mimic some of the symptoms and aetiology of neuropathic pain observed in the clInic (Bennett G J and Xie Y K., 1988; Field et al., 1999).\nNaive male Sprague Dawley rats weighing 200-250 g were acclimatised to the procedure room in their home cages, with food and water available ad libitum. All animals underwent behavioural testing of mechanical allodynia prior to surgery in order to determine the baseline withdrawal thresholds. The average of the last two (out of three) baseline paw-withdrawal thresholds to stimulation with von-Frey hairs was taken as the baseline.\nUnder Isoflurane anaesthesia mixed with oxygen […] the left hind leg was shaved mid-thigh level and an incision made through the skin using a scalpel. The biceps femoris muscle layer was dissected by making an initial incision using a pair of sharp scissors, which was then widened using a pair of blunt scissors. The common sciatic nerve was exposed using a pair of forceps and 4 loose ligatures of chromic gut (SMI) were tied around the sciatic nerve with 1 mm spacing between each. The nerve was then returned below the muscle layer and the wound closed using absorbable sutures (Vicryl).\nBehavioural testing started 19 days post-surgery with mechanical readings taken on day 19, and day 22. […]\nOn day 23, animals were treated orally with either Vehicle (30% aqueous hydroxypropyl-beta-cyclodextrin), 4-{5-[3-(4-Fluorophenyl)-3H-imidazo[4,5-c]pyridin-2-yl]pyridin-2-yl}morpholine 15, 50 and 150 mg/kg (5 mL/kg dose volume), or Pregabalin 30 mg/kg (2 mL/kg dose volume in water). Paw withdrawal thresholds (PWT) from each of the animals (mechanical von-Frey, mvF) were evaluated at 1 and 3 hours post dosing.\nStatic mechanical (tactile) allodynia: Measurement of withdrawal threshold was achieved using calibrated (force; g) von-Frey monofilaments (Touch-Test Sensory Evaluator; Scientific Marketing Associates) applied to the plantar surface of the hindpaw. Withdrawal threshold was determined by increasing and decreasing stimulus intensity, and estimated using the Dixon's up-down method (Dixon, 1980; Chaplan et al., 1994). […]\nMechanical allodynia (von Frey) data were analysed using two-way repeated measures ANOVA with ‘treatment’ as a between subjects effect and ‘day’ as a within subjects effect. […]"}, "CFA induced oedema": {"test_system": "CFA induced oedema", "assay": "CFA induced oedema in rat, paw volume (plethysmometer)", "type": "in vivo", "protocol": "as §1, with “The rat's hind paw is placed into the cylinder containing a solution and the volume of displaced liquid determines the paw volume.” left out\nNaive male, Sprague Dawley rats were acclimatised with food and water available ad libitum. […] Weight bearing was assessed in all groups 1, 2 and 4 hours post compound administration. […] Data was analysed by comparing treatment groups to control group at each time point. Weight bearing (g) readings were taken for both right and left hind paws and the difference calculated. […]\nData Is expressed as % reversal of the hypersensitivity to pain. Paw Volume (mL) readings were taken for the left hind paws. […]"}, "[3]": {"conditions": "oral 10 mg/kg, 1 and 4 hours post administration"}, "[4]": {"conditions": "oral 1, 3 and 10 mg/kg, 24 hours post CFA, 1 and 4 hours post treatment"}}}
{"smiles": "CS(=O)(=O)N1CCN(c2ccc(-c3nc4ccncc4n3-c3ccc(F)cc3)cn2)CC1", "note": "[1-{5-[3-(4-Fluorophenyl)-3H-imidazo[4,5-c]pyridin-2-yl]pyridin-2-yl}-4 methanesulfonylpiperazine]", "values": [{"measurement": "inhibition of the hypersensitivity response (weight bearing)", "setting": "[1]; oral 3 mg/kg, 1 and 4 hours post administration", "result": "significant reduction at 4 hours post administration"}, {"measurement": "inhibition of the hypersensitivity response (weight bearing)", "setting": "[1]; [3]", "result": "significantly inhibiting the hyperactivity response at both 1 and 4 hours post administration"}, {"measurement": "inhibition of the hypersensitivity response (weight bearing)", "setting": "[1]; [4]", "result": "dose-dependently inhibited the hypersensitivity response"}]}
{"smiles": "Fc1ccc(-n2c(-c3ccc(N4CCOCC4)nc3)nc3ccncc32)cc1", "note": "[4-{5-[3-(4-Fluorophenyl)-3H-imidazo[4,5-c]pyridin-2-yl]pyridin-2-yl}morpholine]", "values": [{"measurement": "withdrawal threshold (von-Frey mechanical allodynia)", "setting": "[2]; rat CCI, 50 mg/kg p.o., vs the vehicle group", "result": "reaching statistical significance at 3 h"}, {"measurement": "withdrawal threshold (von-Frey mechanical allodynia)", "setting": "[2]; rat CCI, 150 mg/kg p.o., vs the vehicle group", "result": "reaching statistical significance vs the vehicle group at 1 h and 3 h"}, {"measurement": "withdrawal threshold (von-Frey mechanical allodynia)", "setting": "[2]; rat CCI, 15, 50 and 150 mg/kg p.o., 1 and 3 hours post dosing, FIG. 9", "result": "increased withdrawal threshold in a dose and temporally dependent fashion"}]}
{"smiles": "CC(C)[C@H]1c2nc[nH]c2CCN1C(=O)O[C@H]1CCOC1.CS(=O)(=O)O", "note": "[(3S) Tetrahydrofuran-3-yl (4S)-4-isopropyl-1,4,6,7-tetrahydro-5H-imidazo[4,5-c]pyridine-5-carboxylate mesylate salt]", "values": [{"measurement": "reversal of CFA induced hypersensitivity (weight bearing)", "setting": "[1]; 150 mg/kg p.o., 1, 2 and 4 hours post dose", "result": "no significant reversal of hypersensitivity at any time point"}, {"measurement": "reversal of CFA induced hypersensitivity (weight bearing)", "setting": "[1]; 250 mg/kg p.o., 1, 2 and 4 hours post dose", "result": "significant reversal at 4 hours"}, {"measurement": "reversal of CFA induced hypersensitivity (weight bearing)", "setting": "[1]; 500 mg/kg p.o., 1, 2 and 4 hours post dose", "result": "effective at all time points with maximum effect seen at 4 hours post dose"}]}
{"smiles": "CC(C)[C@H]1c2nc[nH]c2CCN1C(=O)O[C@H]1CCOC1", "note": "[(3S)-Tetrahydrofuran-3-yl (4S)-4-isopropyl-1,4,6,7-tetrahydro-5H-imidazo[4,5-c]pyridine-5-carboxylate]", "values": [{"measurement": "efficacy in CFA hyperalgesia model (reversal of hypersensitivity)", "setting": "[1]; rat, 150, 250 and 500 mg/kg p.o., compared with indomethacin 10 mg/kg, FIG. 1", "result": "effective in a dose-dependent manner, and comparably in efficacy to the gold standard benchmark indomethacin"}]}
{"smiles": "CC(C)[C@H]1c2nc[nH]c2CCN1C(=O)O[C@H]1CCOC1.CS(=O)(=O)O", "note": "[(3S)-tetrahydrofuran-3-yl (4S)-4-isopropyl-1,4,6,7-tetrahydro-5Himidazo[4,5-c]pyridine-5-carboxylate mesylate salt]", "values": [{"measurement": "effect on paw volume", "setting": "CFA induced oedema; rat, 150, 250 and 500 mg/kg p.o., 4 hours post compound administration", "result": "No effect"}]}
{"smiles": "C[C@@](Cc1ccc(O)c(O)c1)(NN)C(=O)O", "note": "[(S)-Carbidopa, reference compound]", "values": [{"measurement": "effect on oedema (paw volume)", "setting": "CFA induced oedema; rat, Part B, 3-100 mg/kg, 3 hours post treatment, FIG. 5", "result": "no effect on oedema"}, {"measurement": "inhibition of the hypersensitivity response (weight bearing)", "setting": "[1]; Part B, 3-100 mg/kg alone, 1 and 3 hours post treatment, FIG. 4", "result": "dose-dependently inhibited the hypersensitivity response"}]}
{"smiles": "CC(=O)N1CCN(c2ccc(-c3nc4ccncc4n3-c3ccc(F)cc3)cn2)CC1", "note": "[Compound 2, 1-(4-{5-[3-(4-Fluorophenyl)-3H-imidazo[4,5-c]pyridin-2-yl]pyridin-2-yl}piperazin-1-yl)ethan-1-one]", "values": [{"measurement": "inhibition of the hypersensitivity response (weight bearing)", "setting": "[1]; [3]", "result": "significantly inhibiting the hyperactivity response at both 1 and 4 hours post administration"}, {"measurement": "inhibition of the hypersensitivity response (weight bearing)", "setting": "[1]; [4]", "result": "dose-dependently inhibited the hypersensitivity response"}]}
{"smiles": "C[C@]12C=CC(=O)C=C1CC[C@@H]1[C@@H]2[C@@H](O)C[C@@]2(C)[C@H]1CC[C@]2(O)C(=O)CO", "note": "[Prednisolone, reference compound]", "values": [{"measurement": "inhibition of the hypersensitivity response (weight bearing)", "setting": "[1]; Part A, 0.3-10 mg/kg alone, 1 and 3 hours post treatment, FIG. 3", "result": "dose-dependently inhibited the hypersensitivity response"}]}
{"smiles": "CC(C)C[C@H](CN)CC(=O)O", "note": "[Pregabalin, reference compound]", "values": [{"measurement": "withdrawal threshold (von-Frey mechanical allodynia)", "setting": "[2]; rat CCI, 30 mg/kg p.o., day 23 post-surgery, reference", "result": "increased the withdrawal threshold to a degree that was comparable with those animals that had undergone sham surgery"}]}
{"smiles": "COc1ccc2c(c1)c(CC(=O)O)c(C)n2C(=O)c1ccc(Cl)cc1", "note": "[indomethacin, reference compound]", "values": [{"measurement": "reversal of CFA induced hypersensitivity (weight bearing)", "setting": "[1]; 10 mg/kg, 24 hours post CFA, reference", "result": "marked reversal of the hypersensitivity"}]}
